Reference: patent US9481885B2, “Methods and compositions related to miR-21 and miR-29a, exosome inhibition, and cancer metastasis” (Ohio State Innovation Foundation, priority 2011, dated 2016)

Test system: human peripheral blood mononuclear cells (PBMCs)
Test: ELISA for TNF-α and IL-6 on human PBMCs
Assay type: cell-based
Settings: human PBMCs from two healthy donors, Dotap formulations
Protocol: To investigate whether miRNA-induced activation of TLRs also occurs in human cells, an NF-κB reporter assay was performed in HEK-293 cells. NF-κB, a transcription factor modulating the expression of several cytokine genes, is activated by several TLRs, including the only ssRNA-binding human TLRs, TLR7 and TLR8. Therefore, we treated HEK-293 cells expressing human TLR7 or TLR8 (hereafter, TLR7- and TLR8-HEK-293 cells, respectively) with Dotap alone or with Dotap formulations of miR-16, -21, -29a, or -147 and performed an NF-κB reporter assay. As positive controls Gardiquimod and ssRNA40 were used, specific agonists of TLR7 and TLR8, respectively. […] To confirm this conclusion, transfected were TLR8-HEK-293 cells with a plasmid encoding a dominant negative form of TLR8 (TLR8DN) and treated these cells with the miRNAs of interest. In TLR8DN cells, the activation of NF-κB by miR-21 and miR-29a was abolished (FIG. 3F). Also, incubated were TLR7- and TLR8-expressing human peripheral blood mononuclear cells (PBMCs) from two healthy donors with Dotap alone or Dotap formulations of miR-16, -21, -27b, -29a, -147, -574-5p, or ssRNA40 and an ELISA was performed for TNF-α and IL-6. With the exception of PBMCs treated with Dotap alone and with Dotap-miR-16, each of the other miRNAs and ssRNA40 induced the production of TNF-α and IL-6 (FIGS. 3G-3J). […]

miR-147: synthetic mature miRNA (SEQ ID NO: 3), sequence similar to RNA33, Dotap formulation (GUGUGUGGAAAUGCUUCUGC; DOTAP formulation, further chemistry not given here)
production of IL-6: induced
production of TNF-α: induced
